Assay results from patent US5985836A, “Alpha-1 proteinase inhibitor binding peptides” (Bayer Corporation, priority 1998, dated 1999).
Ends that are not written are not given here.

Assays:
A1PI = target: T1, A1PI (Homo sapiens, UniProt P01009); test: Capture and elution of active A1PI with 2M urea buffer (elastase inhibition activity assay and immunonephelometry); type: binding; conditions: 4° C.
T1 construct: Human plasma is currently the only approved source of therapeutic AlPI

Immunoglobulin G (IgG) = test: Purification from Effluent II+III, IgG mass balance; type: binding, human; conditions: 1 ml Eff. II+III, 4° C.
How it was run: (§1)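 Mass balance per protein was determined over the load and each step eluate (1M NaCl, 3M NaCl, 2% acetic acid) of peptide columns challenged with 1 ml Effluent II+III. The feed contained 20% ethanol and 20-25 mg/ml hSA, the flow was 865 μl/min after a 10 min residence, and the temperature was 4° C.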

Immunoglobulin A (IgA) = test: Purification from Effluent II+III, IgA mass balance; type: binding, human; conditions: 1 ml Eff. II+III, 4° C.
How it was run: as §1

[1] = * as in Tables 4, 5 (below detection limit)

T1 sequence (P01009 25-418): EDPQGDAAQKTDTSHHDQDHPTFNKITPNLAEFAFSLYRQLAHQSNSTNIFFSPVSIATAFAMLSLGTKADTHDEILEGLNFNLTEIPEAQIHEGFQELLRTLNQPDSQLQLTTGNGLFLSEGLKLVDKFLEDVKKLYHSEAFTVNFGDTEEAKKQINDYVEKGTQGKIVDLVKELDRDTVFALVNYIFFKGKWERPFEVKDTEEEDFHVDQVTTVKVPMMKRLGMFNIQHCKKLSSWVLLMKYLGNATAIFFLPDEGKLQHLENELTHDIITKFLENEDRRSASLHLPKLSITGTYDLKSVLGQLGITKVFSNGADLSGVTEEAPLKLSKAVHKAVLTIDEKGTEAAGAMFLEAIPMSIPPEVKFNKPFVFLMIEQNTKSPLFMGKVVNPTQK

Substance	Mass A1PI in Urea Eluate (mg), Activity (A1PI; 1 mg A1PI, eluted with 2M urea, pH 6, elastase inhibition activity assay) [mg]	Mass A1PI in Urea Eluate (mg), Nephelometry (A1PI; 1 mg A1PI, eluted with 2M urea, pH 6, immunonephelometry) [mg]	Specific Activity (A1PI; mass of A1PI by activity assay relative to immunonephelometry, urea eluate) [mg/mg]	Percent Eluted by Fraction, 1M NaCl (Immunoglobulin G (IgG)) [%]	Percent Eluted by Fraction, 2% Acetic Acid (Immunoglobulin G (IgG)) [%]	Percent Eluted by Fraction, 3M NaCl (Immunoglobulin G (IgG)) [%]	Percent Eluted by Fraction, Flow (Immunoglobulin G (IgG)) [%]	Mass Protein per Eluate Fraction, 1M NaCl (Immunoglobulin G (IgG); [1]) [mg]	Mass Protein per Eluate Fraction, Flow (Immunoglobulin G (IgG); [1]) [mg]	Percent Eluted by Fraction, 1M NaCl (Immunoglobulin A (IgA)) [%]	Percent Eluted by Fraction, 2% Acetic Acid (Immunoglobulin A (IgA)) [%]	Percent Eluted by Fraction, 3M NaCl (Immunoglobulin A (IgA)) [%]	Percent Eluted by Fraction, Flow (Immunoglobulin A (IgA)) [%]	Mass Protein per Eluate Fraction, 1M NaCl (Immunoglobulin A (IgA); [1]) [mg]	Mass Protein per Eluate Fraction, 2% Acetic Acid (Immunoglobulin A (IgA); [1]) [mg]	Mass Protein per Eluate Fraction, Flow (Immunoglobulin A (IgA); [1]) [mg]
VIFLVR	0.36	0.45	0.81	–	–	–	–	–	–	–	–	–	–	–	–	–
VIWLVR	–	–	–	6	0	0	94	0.02	0.36	24	39	0	37	0.11	0.18	0.17
